From patent US20250206754A1, “PAN-CHEMOKINE ANTAGONISTS FOR USE IN TREATING CANCER AND IMMUNE DISORDERS” ("Micar Innovation" LTD., priority 2022, published 2025)
Like-named read-outs stand apart in the source and are kept apart here.

Key:
[1] = Maximal tolerated dose (MTD) study in BALB/c mice; format: in vivo; details: daily (QD) oral doses of 30 mg/kg and 150 mg/kg
Experimental: Design of the in vivo study: A total of 44 female BALB/c mice (12 mice for maximal tolerance dose (MTD) study; 32 mice for efficacy study) were used in the 4T-1-Luc study. The animals were specific pathogen free and approximately 4-5 weeks old at the initiation of the study.
MTD studies: Initially, 10 BALB/c mice were used for the maximal tolerated dose (MTD) response study determination. The mice were randomized based on body weight and were treated with Hit 1 compound with daily (QD) oral doses of 30 mg/kg and 150 mg/kg. Body weight was measured daily.

[2] = target: T1, CCR7 (Homo sapiens, UniProt P32248); assay: Ca^2+ mobilization assay, CCR7; format: cell-based
T1 construct: expressed in transfected cells
T1 sequence (P32248 25-378): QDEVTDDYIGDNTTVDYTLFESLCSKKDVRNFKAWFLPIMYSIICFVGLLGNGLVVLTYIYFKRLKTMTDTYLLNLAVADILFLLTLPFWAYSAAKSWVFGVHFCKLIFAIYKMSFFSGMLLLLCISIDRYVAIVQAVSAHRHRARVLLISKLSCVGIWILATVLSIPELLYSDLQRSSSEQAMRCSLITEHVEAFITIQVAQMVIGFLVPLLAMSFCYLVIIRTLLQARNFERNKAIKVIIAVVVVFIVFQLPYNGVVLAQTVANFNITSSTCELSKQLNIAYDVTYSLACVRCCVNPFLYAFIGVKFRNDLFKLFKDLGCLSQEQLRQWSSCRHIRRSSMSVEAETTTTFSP
Experimental: (§1) Selected compounds were initially sent for both antagonist and agonist TANGO β-arrestin assays. […] Replacement only on the amide group with CN led to strong activity decrease in β-arrestin assay: only 31% activity at about 30 μM and similar one at 100 μM (Table 1). Five more derivatives with replaced amide group were also tested in parallel by Ca^2+ mobilization assay and they all were not active up to the tested concertation of 100 μM.
To examine the colloid aggregation possibility a β-lactamase enzymatic activity counterscreen assay was performed, which is the commonly adopted tool for detection of such properties of the compounds.

[3] = target: T2, CCR5 (Homo sapiens, UniProt P51681); assay: Ca^2+ mobilization assay, CCR5; format: cell-based
T2 sequence (P51681 whole entry): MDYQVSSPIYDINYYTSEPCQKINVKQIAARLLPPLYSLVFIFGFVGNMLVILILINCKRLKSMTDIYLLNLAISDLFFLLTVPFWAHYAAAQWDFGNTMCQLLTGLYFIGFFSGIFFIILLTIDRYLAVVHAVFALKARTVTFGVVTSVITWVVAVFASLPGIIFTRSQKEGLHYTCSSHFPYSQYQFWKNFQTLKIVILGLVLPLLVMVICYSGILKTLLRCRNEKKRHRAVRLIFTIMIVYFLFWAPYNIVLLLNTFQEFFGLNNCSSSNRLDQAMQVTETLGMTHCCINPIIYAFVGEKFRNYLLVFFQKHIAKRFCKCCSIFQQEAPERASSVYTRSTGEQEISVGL
Experimental: (§2) The Kb values are also retrieved. […] Finally, to make it more clear the second messenger output for Hit1 and confirm the nature of β-arrestin bias GTPγS and ERK assays were also performed. […] Considering that the ERK is directly related to β-arrestin path and binds directly to the arrestin it was concluded that this compound is β-arrestin biased (Table 1 and FIGS. 3A and 3B). Finally, several other potential hits were identified but the activities were in a range of 25-35% at 100 μM concentration and they were discarded in this disclosure.

[4] = target: T2, CCR5; assay: cAMP assay, CCR5; format: cell-based; details: CCR5 (data not shown)
Experimental: as §2

[5] = target: T3, CCR9 (Homo sapiens, UniProt P51686); assay: Ca^2+ mobilization assay, CCR9; format: cell-based
T3 sequence (P51686 1-369): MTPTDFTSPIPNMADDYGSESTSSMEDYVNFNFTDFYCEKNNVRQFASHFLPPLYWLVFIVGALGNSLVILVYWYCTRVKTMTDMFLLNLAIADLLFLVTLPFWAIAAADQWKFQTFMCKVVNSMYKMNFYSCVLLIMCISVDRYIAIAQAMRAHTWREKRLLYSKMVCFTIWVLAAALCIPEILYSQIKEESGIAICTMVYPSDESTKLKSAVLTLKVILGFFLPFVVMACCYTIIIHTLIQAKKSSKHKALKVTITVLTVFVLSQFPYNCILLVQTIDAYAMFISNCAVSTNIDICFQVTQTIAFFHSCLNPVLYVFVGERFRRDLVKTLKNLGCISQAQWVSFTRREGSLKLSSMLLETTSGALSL
Experimental: as §2

[6] = target: T4, CCR1 (Homo sapiens, UniProt P32246); assay: β-arrestin selectivity assay, CCR1; format: cell-based
T4 sequence (P32246 1-355): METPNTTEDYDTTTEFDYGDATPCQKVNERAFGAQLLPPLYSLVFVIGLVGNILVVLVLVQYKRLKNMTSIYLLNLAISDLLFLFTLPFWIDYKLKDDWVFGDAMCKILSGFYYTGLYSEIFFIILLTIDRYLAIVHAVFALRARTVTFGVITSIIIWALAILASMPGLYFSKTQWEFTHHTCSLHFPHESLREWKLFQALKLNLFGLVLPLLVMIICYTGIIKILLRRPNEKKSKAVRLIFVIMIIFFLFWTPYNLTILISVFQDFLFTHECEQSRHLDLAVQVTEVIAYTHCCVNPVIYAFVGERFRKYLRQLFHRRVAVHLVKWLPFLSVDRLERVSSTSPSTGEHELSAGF

[7] = target: T1, CCR7; assay: TANGO β-arrestin antagonist assay, CCR7; format: cell-based
Experimental: as §1
In current CCR7-β-arrestin antagonistic assay a Hill coefficient of 15.1 was obtained, without any transformation of the data. Instead for CCR1, CCR2, CCR3 and CCR5 coefficients much closer to one were calculated, 2.3, 3.1, 2.6 and 1.9, respectively. Moreover, the increase of the activity for CCR3 and CCR5 were over 50-folds for concentrations where the activity raised. […] Further, the CCR7-β-arrestin antagonistic assay was repeated and retrieved almost identical results.

[8] = target: T1, CCR7; assay: TANGO β-arrestin agonist assay, CCR7; format: cell-based
Experimental: as §1

[9] = tested on: primary human keratinocytes; assay: Cell viability in the keratinocyte inflammation models; format: cell-based; details: in the cytokine release models
[10] = tested on: 4T-1-luc cells; format: in vivo; details: Day 15
[11] = target: T2, CCR5; assay: β-arrestin selectivity assay, CCR5; format: cell-based

For `NC(=O)c1ccccc1Oc1ncnc2sc(-c3ccccc3)cc12` [Hit 1, 2-({6-phenylthieno[2,3-d]pyrimidin-4-yl}oxy)benzamide], the “behavior and side effects” value [1] was “did not show abnormal behavior”, the body weight loss [1] was “A significant (>20%) body lost was not observed” and the inhibition at 100 µM ([2]; 100 μM concentration, read-out: Ca^2+ assay (100 μM), Percent of inhibition) was 63%. The Kb ([2]; CCR7) was 2.8 µM, the “Hill slope” value ([2]; Ca^2+ mobilization assay, CCR7) was 2.6 and the IC50 ([2]; Ca^2+ mobilization assay, CCR7) was 92 µM. For the same molecule, the “activity change with 0.01% Triton X-100” value ([2]; Ca^2+ mobilization assay, CCR7 expressed cells, preliminary data) was “no activity change”, the IC50 ([2]; similar Ca^2+ mobilization assay in an independent lab (data not shown)) was 25 to 30 µM and the Kb [3] was 10.5 µM. For the same molecule, the Hill-Slope ([3]; Ca^2+ assay) was 1.2, the IC50 ([3]; Ca^2+ mobilization assay) was 55 µM and the IC50 [4] was 50 µM. For the same molecule, the Kb [5] was 5.2 µM, the Hill-Slope ([5]; Ca^2+ assay) was 0.8 and the IC50 ([5]; Ca^2+ mobilization assay) was 58 µM. It also gave a Hill coefficient [6] of 2.3, an IC50 [6] of 13.6 µM and an inhibition at 100 µM ([7]; 100 μM concentration, read-out: β-arrestin assay (100 μM), Percent of inhibition) of 110%. It also gave a Hill coefficient ([7]; CCR7-β-arrestin antagonistic assay, without any transformation of the data) of 15.1, an IC50 ([7]; TANGO β-arrestin antagonist assay, CCR7, read-out: IC50, antagonistic activity) of 9.1 µM and a Hill slope ([7]; same data transformed to log units, normalized, GraphPad 6) of 11.2. For the same molecule, the IC50 ([7]; same data transformed to log units, normalized, GraphPad 6, read-out: IC50) was 9.2 µM, the agonist activity [8] was “no any agonist activity” and the cell viability [9] was “Some inhibition of the cell viability”. For the same molecule, the “Animal bioluminescence imaging intensity, Mean” value ([10]; G2 5 mg/kg p.o. QD) was 1.69E+08 10^8 p/s, the “Animal bioluminescence imaging intensity, Mean” value ([10]; G3 30 mg/kg p.o. QD) was 1.09E+08 10^8 p/s and the Hill coefficient [11] was 1.9. It also gave an IC50 [11] of 1.9 µM.
